Measured values: ChEMBL document CHEMBL3045552, “In vivo screening of diarylimidazoles as anticonvulsant agents” (Med Chem Res, 2012)
The source made the active and inactive calls. No cut-off for these calls is given here.

How the values were obtained:
Mus musculus [1] = assay: Anticonvulsant activity in Mus musculus CF1 albino (mouse) assessed as protection against maximal electroshock-induced seizures at 30 mg/kg, ip measured at 0.5 hr; format: functional, organism-based; design: dose 30 mg/kg
Mus musculus [2] = assay: Anticonvulsant activity in Mus musculus CF1 albino (mouse) assessed as protection against maximal electroshock-induced seizures at 300 mg/kg, ip measured at 4 hr; format: functional, organism-based; design: dose 300 mg/kg
Mus musculus [3] = assay: Anticonvulsant activity in Mus musculus CF1 albino (mouse) assessed as protection against maximal electroshock-induced seizures at 100 mg/kg, ip measured at 4 hr; format: functional, organism-based; design: dose 100 mg/kg
Mus musculus [4] = assay: Anticonvulsant activity in Mus musculus CF1 albino (mouse) assessed as protection against maximal electroshock-induced seizures at 30 mg/kg, ip measured at 4 hr; format: functional, organism-based; design: dose 30 mg/kg
Mus musculus [5] = assay: Anticonvulsant activity in Mus musculus CF1 albino (mouse) assessed as protection against maximal electroshock-induced seizures at 300 mg/kg, ip measured at 0.5 hr; format: functional, organism-based; design: dose 300 mg/kg
[6] = Neurotoxicity in ip dosed Mus musculus CF1 albino (mouse) assessed as minimal motor impairment measured at 0.25 hr by rotorod test; format: toxicity, organism-based; conditions: in vivo
[7] = Protective index, ratio of TD50 for neurotoxicity in ip dosed Mus musculus CF1 albino (mouse) to ED50 for protection against subcutaneous metrazol-induced seizures in ip dosed Mus musculus CF1 albino (mouse); format: toxicity, organism-based; conditions: in vivo, read-out: Ratio TD50/ED50
Mus musculus [8] = assay: Anticonvulsant activity in ip dosed Mus musculus CF1 albino (mouse) assessed as protection against subcutaneous metrazol-induced seizures measured at 0.25 hr; format: functional
Mus musculus [9] = assay: Anticonvulsant activity in ip dosed Mus musculus CF1 albino (mouse) assessed as protection against maximal electroshock-induced seizures measured at 0.25 hr; format: functional
[10] = Protective index, ratio of TD50 for neurotoxicity in ip dosed Mus musculus CF1 albino (mouse) to ED50 for protection against maximal electroshock-induced seizures in ip dosed Mus musculus CF1 albino (mouse); format: toxicity, organism-based; conditions: in vivo, read-out: Ratio TD50/ED50
Mus musculus [11] = assay: Anticonvulsant activity in Mus musculus CF1 albino (mouse) assessed as protection against electrically-induced seizure at 100 mg/kg, ip measured at 4 hr by 6Hz psychomotor seizure test; format: functional, organism-based; design: dose 100 mg/kg
Mus musculus [12] = assay: Anticonvulsant activity in Mus musculus CF1 albino (mouse) assessed as protection against electrically-induced seizure at 100 mg/kg, ip measured at 2 hr by 6Hz psychomotor seizure test; format: functional, organism-based; design: dose 100 mg/kg
Mus musculus [13] = assay: Neurotoxicity in Mus musculus CF1 albino (mouse) assessed as minimal motor impairment at 300 mg/kg, ip measured at 4 hr by rotorod test; format: toxicity, organism-based; design: dose 300 mg/kg, route intraperitoneal; conditions: in vivo
Mus musculus [14] = assay: Neurotoxicity in Mus musculus CF1 albino (mouse) assessed as minimal motor impairment at 100 mg/kg, ip measured at 4 hr by rotorod test; format: toxicity, organism-based; design: dose 100 mg/kg, route intraperitoneal; conditions: in vivo
Mus musculus [15] = assay: Neurotoxicity in Mus musculus CF1 albino (mouse) assessed as minimal motor impairment at 30 mg/kg, ip measured at 4 hr by rotorod test; format: toxicity, organism-based; design: dose 30 mg/kg, route intraperitoneal; conditions: in vivo
Mus musculus [16] = assay: Neurotoxicity in Mus musculus CF1 albino (mouse) assessed as minimal motor impairment at 300 mg/kg, ip measured at 0.5 hr by rotorod test; format: toxicity, organism-based; design: dose 300 mg/kg, route intraperitoneal; conditions: in vivo
Mus musculus [17] = assay: Neurotoxicity in Mus musculus CF1 albino (mouse) assessed as minimal motor impairment at 100 mg/kg, ip measured at 0.5 hr by rotorod test; format: toxicity, organism-based; design: dose 100 mg/kg, route intraperitoneal; conditions: in vivo
Mus musculus [18] = assay: Neurotoxicity in Mus musculus CF1 albino (mouse) assessed as minimal motor impairment at 30 mg/kg, ip measured at 0.5 hr by rotorod test; format: toxicity, organism-based; design: dose 30 mg/kg, route intraperitoneal; conditions: in vivo
Mus musculus [19] = assay: Anticonvulsant activity in Mus musculus CF1 albino (mouse) assessed as protection against subcutaneous metrazol-induced seizures at 300 mg/kg, ip measured at 4 hr; format: functional, organism-based; design: dose 300 mg/kg
Mus musculus [20] = assay: Anticonvulsant activity in Mus musculus CF1 albino (mouse) assessed as protection against subcutaneous metrazol-induced seizures at 100 mg/kg, ip measured at 4 hr; format: functional, organism-based; design: dose 100 mg/kg
Mus musculus [21] = assay: Anticonvulsant activity in Mus musculus CF1 albino (mouse) assessed as protection against subcutaneous metrazol-induced seizures at 30 mg/kg, ip measured at 4 hr; format: functional, organism-based; design: dose 30 mg/kg
Mus musculus [22] = assay: Anticonvulsant activity in Mus musculus CF1 albino (mouse) assessed as protection against subcutaneous metrazol-induced seizures at 300 mg/kg, ip measured at 0.5 hr; format: functional, organism-based; design: dose 300 mg/kg
Mus musculus [23] = assay: Anticonvulsant activity in Mus musculus CF1 albino (mouse) assessed as protection against subcutaneous metrazol-induced seizures at 100 mg/kg, ip measured at 0.5 hr; format: functional, organism-based; design: dose 100 mg/kg
Mus musculus [24] = assay: Anticonvulsant activity in Mus musculus CF1 albino (mouse) assessed as protection against subcutaneous metrazol-induced seizures at 30 mg/kg, ip measured at 0.5 hr; format: functional, organism-based; design: dose 30 mg/kg
Mus musculus [25] = assay: Anticonvulsant activity in ip dosed Mus musculus CF1 albino (mouse) assessed as protection against electrically-induced seizure measured at 0.25 hr by 6Hz psychomotor seizure test; format: functional
[26] = Protective index, ratio of TD50 for neurotoxicity in ip dosed Mus musculus CF1 albino (mouse) to ED50 for protection against electrically-induced seizure by 6Hz psychomotor seizure test in ip dosed Mus musculus CF1 albino (mouse); format: toxicity, organism-based; conditions: in vivo, read-out: Ratio TD50/ED50
Mus musculus [27] = assay: Anticonvulsant activity in Mus musculus CF1 albino (mouse) assessed as protection against maximal electroshock-induced seizures at 100 mg/kg, ip measured at 0.5 hr; format: functional, organism-based; design: dose 100 mg/kg
Mus musculus [28] = assay: Anticonvulsant activity in Mus musculus CF1 albino (mouse) assessed as protection against electrically-induced seizure at 100 mg/kg, ip measured at 1 hr by 6Hz psychomotor seizure test; format: functional, organism-based; design: dose 100 mg/kg
Mus musculus [29] = assay: Anticonvulsant activity in Mus musculus CF1 albino (mouse) assessed as protection against electrically-induced seizure at 100 mg/kg, ip measured at 0.5 hr by 6Hz psychomotor seizure test; format: functional, organism-based; design: dose 100 mg/kg
Mus musculus [30] = assay: Anticonvulsant activity in Mus musculus CF1 albino (mouse) assessed as protection against electrically-induced seizure at 100 mg/kg, ip measured at 0.25 hr by 6Hz psychomotor seizure test; format: functional, organism-based; design: dose 100 mg/kg

SMILES | Activity (Mus musculus [1]) | Activity (Mus musculus [2]) | Activity (Mus musculus [3]) | Activity (Mus musculus [4]) | Activity (Mus musculus [5]) | TD50 at 0.25 h [6] [mg/kg] | Activity (Mus musculus [11]) | Activity (Mus musculus [13]) | Activity (Mus musculus [14]) | Activity (Mus musculus [15]) | Activity (Mus musculus [16]) | Activity (Mus musculus [17]) | Activity (Mus musculus [18]) | Activity (Mus musculus [19]) | Activity (Mus musculus [20]) | Activity (Mus musculus [21]) | Activity (Mus musculus [22]) | Activity (Mus musculus [23]) | Activity (Mus musculus [24]) | Activity (Mus musculus [27]) | further results
COc1ccc(-c2nc(-c3ccc(Cl)cc3)c[nH]2)cc1 | inactive | Active | Active | inactive | Active | 238 | inactive | Non-toxic | Non-toxic | Non-toxic | Non-toxic | Non-toxic | Non-toxic | inactive | inactive | inactive | inactive | inactive | inactive |  | selectivity ratio [7]: 1.5; ED50 (Mus musculus [8]): 158 mg/kg; ED50 (Mus musculus [9]): 68.8 mg/kg; selectivity ratio [10]: 3.5; Activity (Mus musculus [12]): inactive
O=C1NC(=O)C(c2ccccc2)(c2ccccc2)N1 [PHENYTOIN] |  |  |  |  |  | 35.6 |  |  |  |  |  |  |  |  |  |  |  |  |  |  | ED50 (Mus musculus [25]): 27.5 mg/kg
Cc1ccc(-c2nc(-c3ccccc3)c[nH]2)cc1 | inactive | Active | inactive | inactive | Active | 188 | inactive | Non-toxic | Non-toxic | Non-toxic | Non-toxic | Non-toxic | Non-toxic | inactive | inactive | inactive | inactive | inactive | inactive |  | selectivity ratio [26]: 3; ED50 (Mus musculus [25]): 62.4 mg/kg
FC(F)(F)Oc1ccc(-c2nc(-c3ccccc3)c[nH]2)cc1 | inactive | Active |  | inactive | Active | 136 |  | Non-toxic | Non-toxic | Non-toxic | Toxic | Non-toxic | Non-toxic | inactive | inactive | inactive | Active | inactive | inactive | inactive | selectivity ratio [26]: 4.8; ED50 (Mus musculus [25]): 28.2 mg/kg; Activity (Mus musculus [28]): Active; Activity (Mus musculus [29]): Active; Activity (Mus musculus [30]): Active
CC(C)c1ccc(-c2nc(-c3ccccc3)c[nH]2)cc1 | inactive | Active | inactive | inactive | Active |  |  | Non-toxic | Non-toxic | Non-toxic | Non-toxic | Non-toxic | Non-toxic | inactive | inactive | inactive | inactive | inactive | inactive | inactive | Activity (Mus musculus [28]): inactive
CCOc1ccc(-c2nc(-c3ccccc3)c[nH]2)cc1 | inactive | inactive | inactive | inactive | Active |  | inactive | Non-toxic | Non-toxic | Non-toxic | Non-toxic | Non-toxic | Non-toxic |  | inactive | inactive | inactive | inactive | inactive |  | Activity (Mus musculus [12]): inactive; Activity (Mus musculus [28]): inactive
COc1ccc(-c2nc(-c3ccccc3)c[nH]2)cc1 | inactive | Active |  | inactive | Active |  | inactive | Toxic | Non-toxic | Non-toxic | Toxic | Non-toxic | Non-toxic | inactive | inactive | inactive | Active | inactive | inactive | Active | selectivity ratio [7]: 1.4; ED50 (Mus musculus [8]): 142 mg/kg; ED50 (Mus musculus [9]): 46.8 mg/kg; selectivity ratio [10]: 4.3; Activity (Mus musculus [12]): inactive
COc1ccc(-c2nc(-c3cccc(Cl)c3)c[nH]2)cc1 | inactive | Active |  | inactive | Active | 390 | inactive | Non-toxic | Non-toxic | Non-toxic | Non-toxic | Non-toxic | Non-toxic | inactive | inactive | inactive | inactive | inactive | inactive | inactive | selectivity ratio [7]: 3.8; ED50 (Mus musculus [8]): 103 mg/kg; ED50 (Mus musculus [9]): 82.1 mg/kg; selectivity ratio [10]: 4.7; Activity (Mus musculus [28]): inactive
c1ccc(-c2c[nH]c(-c3ccccc3)n2)cc1 | Active | Active | inactive | inactive | Active |  | inactive |  | Non-toxic | Non-toxic | Toxic |  | Non-toxic | inactive | inactive | inactive | inactive | inactive | inactive | Active | ED50 (Mus musculus [25]): 47.2 mg/kg; ED50 (Mus musculus [8]): 161 mg/kg; ED50 (Mus musculus [9]): 61.7 mg/kg; Activity (Mus musculus [12]): inactive; Activity (Mus musculus [28]): Active; Activity (Mus musculus [29]): Active; Activity (Mus musculus [30]): Active
CC(C)Oc1ccc(-c2nc(-c3ccccc3)c[nH]2)cc1 | Active | Active | inactive | inactive | Active |  | inactive |  | Non-toxic | Non-toxic | Toxic | Non-toxic | Non-toxic | inactive | inactive | inactive | inactive | inactive | inactive | Active | Activity (Mus musculus [12]): inactive
